Source: patent US7138361B2, “Herbicidal heterocycles” (E. I. du Pont de Nemours and Company, priority 2000, dated 2006)

Columns and labels:
Assay type in all cases: in vivo
[1] = tested on: Surinam grass (Brachiaria decumbens); test: Test B preemergence
In short: (§1)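 Ratings on a 0 to 100 visual scale (100 complete control) compare treated plants with controls 13 to 15 days after application. Treatments were pre- or postemergence sprays of compound in non-phytotoxic solvent with surfactant.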

[2] = tested on: barnyardgrass (Echinochloa crus-galli); test: Test B preemergence
In short: as §1

[3] = tested on: cocklebur (Xanthium strumarium); test: Test B preemergence
In short: as §1

corn (Zea mays) = test: Test B preemergence
In short: as §1

[4] = tested on: crabgrass (Digitaria sanguinalis); test: Test B preemergence
In short: as §1

[5] = tested on: giant foxtail (Setaria faberii); test: Test B preemergence
In short: as §1

[6] = tested on: lambsquarters (Chenopodium album); test: Test B preemergence
In short: as §1

[7] = tested on: morning glory (Ipomoea hederacea); test: Test B preemergence
In short: as §1

[8] = tested on: pigweed (Amaranthus retroflexus); test: Test B preemergence
In short: as §1

rice (Oryza saliva) = test: Test B preemergence
In short: as §1

[9] = tested on: velvetleaf (Abutilon theophrasti); test: Test B preemergence
In short: as §1

Sunflower [10] = test: Test C preemergence
[11] = tested on: Surinam grass (Brachiaria decumbens); test: Test C preemergence; settings: for Plant response rating (0 to 100), Surinam grass: visual evaluation after 12 to 14 days
In short: (§2)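 Seeds are planted and treated before emergence; for the postemergence test, plants at 1- to 4-leaf stage (2–18 cm) receive the same formulation, a solvent blend containing surfactant. Plants stay in the greenhouse 12–14 days, then response is scored visually from 0 (none) to 100 (complete control).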

[12] = tested on: bermudagrass (Cynodon dactylon); test: Test C preemergence; settings: for Plant response rating (0 to 100 where 0 is no effect and 100 is complete control), Bermudagrass: visual evaluation after 12 to 14 days
In short: as §2

[13] = tested on: cocklebur (Xanthium strumarium); test: Test C preemergence; settings: for Plant response rating (0 to 100), Cocklebur: visual evaluation after 12 to 14 days
In short: as §2

[14] = tested on: common ragweed (Ambrosia elatior); test: Test C preemergence; settings: for Plant response rating (0 to 100), Ragweed, Common: visual evaluation after 12 to 14 days
In short: as §2

[15] = tested on: crabgrass (Digitaria sanguinalis); test: Test C preemergence; settings: for Plant response rating (0 to 100), Crabgrass: visual evaluation after 12 to 14 days
In short: as §2

[16] = tested on: giant foxtail (Setaria faberii); test: Test C preemergence; settings: for Plant response rating (0 to 100), Foxtail, Giant: visual evaluation after 12 to 14 days
In short: as §2

[17] = tested on: goosegrass (Eleusine indica); test: Test C preemergence; settings: for Plant response rating (0 to 100), Goosegrass: visual evaluation after 12 to 14 days
In short: as §2

[18] = tested on: morningglory (Ipomoea hederacea); test: Test C preemergence; settings: for Plant response rating (0 to 100), Morningglory: visual evaluation after 12 to 14 days
In short: as §2

[19] = tested on: velvetleaf (Abutilon theophrasti); test: Test C preemergence; settings: for Plant response rating (0 to 100), Velvetleaf: visual evaluation after 12 to 14 days
In short: as §2

Sunflower [20] = test: Test C preemergence; settings: visual evaluation after 12 to 14 days
[21] = Preemergence, Rate 500 g/ha, scale 0 to 100, 0 no effect, 100 complete control
[22] = preemergence, Rate 125 g/ha, scale 0 to 100, 0 no effect, 100 complete control
[23] = Rate 62 g/ha, scale 0 to 100, 0 no effect, 100 complete control
[24] = Preemergence, Rate 500 g/ha, scale 0 to 100
[25] = preemergence, Rate 125 g/ha, scale of 0 to 100 where 0 is no effect and 100 is complete control, 13 to 15 days
[26] = Rate 125 g/ha, scale 0 to 100, 0 no effect, 100 complete control
[27] = preemergence, Rate 62 g/ha, scale 0 to 100
[28] = preemergence, Rate 250 g/ha, scale 0 to 100, 0 no effect, 100 complete control

CC(C)c1ccn(C2SCN(c3cccc(OC(F)(F)F)c3)C2=O)n1 (stereo not drawn) [Compound 31]
Plant response rating, Surinam grass [1, 21]: 70 | Plant response rating, Surinam grass [1, 22]: 30 | Plant response rating, Barnyardgrass [2, 21]: 100 | Plant response rating, Barnyardgrass [2, 22]: 100 | Plant response rating, Cocklebur [3, 21]: 0 | Plant response rating, Cocklebur [3, 22]: 0 | Plant response rating, Corn (corn (Zea mays); [21]): 0 | Plant response rating, Corn (corn (Zea mays); [22]): 0 | Plant response rating, Crabgrass [4, 21]: 100 | Plant response rating, Crabgrass [4, 22]: 100 | Plant response rating, Foxtail, Giant [5, 21]: 90 | Plant response rating, Foxtail, Giant [5, 22]: 30 | Plant response rating, Lambsquarters [6, 21]: 100 | Plant response rating, Lambsquarters [6, 22]: 100 | Plant response rating, Morningglory [7, 21]: 0 | Plant response rating, Pigweed [8, 21]: 100 | Plant response rating, Rice (rice (Oryza saliva); [21]): 0 | Plant response rating, Velvetleaf [9, 21]: 0 | Plant response rating, Sunflower (Sunflower [10]; [23]): 20 | Plant response rating, Sunflower (Sunflower [10]; Rate 500 g/ha, scale 0 to 100): 40 | Plant response rating, Surinam grass [11, 24]: 70 | Plant response rating, Surinam grass [11, 23]: 50 | Plant response rating (0 to 100), Surinam grass ([11]; preemergence, Rate 250 g/ha): 60 | Plant response rating, Surinam grass [11, 22]: 50 | Plant response rating, Bermudagrass [12, 24]: 100 | Plant response rating, Bermudagrass [12, 23]: 90 | Plant response rating (0 to 100 where 0 is no effect and 100 is complete control), Bermudagrass ([12]; preemergence, Rate 250 g/ha): 100 | Plant response rating, Bermudagrass [12, 22]: 100 | Plant response rating, Cocklebur [13, 24]: 30 | Plant response rating, Cocklebur [13, 23]: 0 | Plant response rating (0 to 100), Cocklebur ([13]; preemergence, Rate 250 g/ha): 30 | Plant response rating, Cocklebur [13, 22]: 0 | Plant response rating, Ragweed, Common [14, 24]: 100 | Plant response rating, Ragweed, Common [14, 23]: 30 | Plant response rating (0 to 100), Ragweed, Common ([14]; preemergence, Rate 250 g/ha): 90 | Plant response rating, Ragweed, Common [14, 22]: 90 | Plant response rating, Crabgrass [15, 24]: 100 | Plant response rating, Crabgrass [15, 23]: 100 | Plant response rating (0 to 100), Crabgrass ([15]; preemergence, Rate 250 g/ha): 100 | Plant response rating, Crabgrass [15, 22]: 100 | Plant response rating, Foxtail, Giant [16, 24]: 100 | Plant response rating, Foxtail, Giant [16, 23]: 40 | Plant response rating (0 to 100), Foxtail, Giant ([16]; preemergence, Rate 250 g/ha): 60 | Plant response rating, Foxtail, Giant [16, 22]: 50 | Plant response rating, Goosegrass [17, 24]: 100 | Plant response rating, Goosegrass [17, 23]: 100 | Plant response rating (0 to 100), Goosegrass ([17]; preemergence, Rate 250 g/ha): 100 | Plant response rating, Goosegrass [17, 22]: 100 | Plant response rating, Morningglory [18, 24]: 50 | Plant response rating, Morningglory [18, 23]: 30 | Plant response rating (0 to 100), Morningglory ([18]; preemergence, Rate 250 g/ha): 40 | Plant response rating, Morningglory [18, 22]: 30 | Plant response rating, Velvetleaf [19, 24]: 30 | Plant response rating, Velvetleaf [19, 23]: 0 | Plant response rating (0 to 100), Velvetleaf ([19]; preemergence, Rate 250 g/ha): 30 | Plant response rating, Velvetleaf [19, 22]: 0 | Plant response rating (0 to 100), Sunflower (Sunflower [20]; Rate 250 g/ha): 40

CCCOc1cc(N2CCC(n3ccc(C(C)(C)C)n3)C2=O)ccc1C (stereo not drawn) [Compound 107]
Plant response rating, Surinam grass [1, 21]: 70 | Plant response rating, Surinam grass [1, 25]: 0 | Plant response rating, Barnyardgrass [2, 21]: 30 | Plant response rating, Barnyardgrass [2, 25]: 0 | Plant response rating, Cocklebur [3, 21]: 20 | Plant response rating, Cocklebur [3, 25]: 0 | Plant response rating, Corn (corn (Zea mays); [21]): 0 | Plant response rating, Corn (corn (Zea mays); [25]): 0 | Plant response rating, Crabgrass [4, 21]: 100 | Plant response rating, Crabgrass [4, 25]: 0 | Plant response rating, Foxtail, Giant [5, 21]: 40 | Plant response rating, Foxtail, Giant [5, 25]: 0 | Plant response rating, Lambsquarters [6, 21]: 100 | Plant response rating, Lambsquarters [6, 25]: 100 | Plant response rating, Morningglory [7, 21]: 100 | Plant response rating, Morningglory [7, 25]: 0 | Plant response rating, Pigweed [8, 21]: 100 | Plant response rating, Pigweed [8, 25]: 80 | Plant response rating, Rice (rice (Oryza saliva); [21]): 0 | Plant response rating, Rice (rice (Oryza saliva); [25]): 0 | Plant response rating, Velvetleaf [9, 21]: 0 | Plant response rating, Velvetleaf [9, 25]: 0 | Plant response rating, Sunflower (Sunflower [10]; [26]): 0 | Plant response rating, Surinam grass [11, 26]: 0 | Plant response rating, Surinam grass [11, 27]: 0 | Plant response rating (0 to 100), Surinam grass ([11]; preemergence, Rate 500 g/ha): 0 | Plant response rating, Surinam grass [11, 28]: 0 | Plant response rating, Bermudagrass [12, 26]: 100 | Plant response rating, Bermudagrass [12, 27]: 85 | Plant response rating (0 to 100 where 0 is no effect and 100 is complete control), Bermudagrass ([12]; preemergence, Rate 500 g/ha): 100 | Plant response rating, Bermudagrass [12, 28]: 100 | Plant response rating, Cocklebur [13, 26]: 0 | Plant response rating, Cocklebur [13, 27]: 0 | Plant response rating (0 to 100), Cocklebur ([13]; preemergence, Rate 500 g/ha): 0 | Plant response rating, Cocklebur [13, 28]: 0 | Plant response rating, Ragweed, Common [14, 26]: 30 | Plant response rating, Ragweed, Common [14, 27]: 0 | Plant response rating (0 to 100), Ragweed, Common ([14]; preemergence, Rate 500 g/ha): 70 | Plant response rating, Ragweed, Common [14, 28]: 60 | Plant response rating, Crabgrass [15, 26]: 100 | Plant response rating, Crabgrass [15, 27]: 100 | Plant response rating (0 to 100), Crabgrass ([15]; preemergence, Rate 500 g/ha): 100 | Plant response rating, Crabgrass [15, 28]: 100 | Plant response rating, Foxtail, Giant [16, 26]: 100 | Plant response rating, Foxtail, Giant [16, 27]: 100 | Plant response rating (0 to 100), Foxtail, Giant ([16]; preemergence, Rate 500 g/ha): 100 | Plant response rating, Foxtail, Giant [16, 28]: 100 | Plant response rating, Goosegrass [17, 26]: 70 | Plant response rating, Goosegrass [17, 27]: 10 | Plant response rating (0 to 100), Goosegrass ([17]; preemergence, Rate 500 g/ha): 100 | Plant response rating, Goosegrass [17, 28]: 80 | Plant response rating, Morningglory [18, 26]: 0 | Plant response rating, Morningglory [18, 27]: 0 | Plant response rating (0 to 100), Morningglory ([18]; preemergence, Rate 500 g/ha): 100 | Plant response rating, Morningglory [18, 28]: 0 | Plant response rating, Velvetleaf [19, 26]: 50 | Plant response rating, Velvetleaf [19, 27]: 40 | Plant response rating (0 to 100), Velvetleaf ([19]; preemergence, Rate 500 g/ha): 100 | Plant response rating, Velvetleaf [19, 28]: 50 | Plant response rating (0 to 100), Sunflower (Sunflower [20]; Rate 500 g/ha): 70
